Data as given in patent US5795612A, “Aspartyldipeptideamine derivatives and sweetner” (Ajinomoto Co., Inc., priority 1995, dated 1998).
Residues, ends and D or L forms follow the SMILES beside them.

Assays:
[1] = Sensory evaluation of sweetness potency relative to sugar; settings: for Sweetnes Potency: Table 1, compared with 4% aqueous sucrose solution; for Sweetness Potency (sugar=1): sensory evaluation
[2] = Stability (half-life) heated to 70° C. in a phosphate buffer (pH=3); assay type: physicochemical

## COCC(NC(=O)[C@H](NC(=O)[C@@H](N)CC(=O)O)C(C)C)c1ccco1 (mixture of isomers) [Example 9, α-L-aspartyl-D-valine (RS)-α-furyl-β-methoxyethylamide]
[1]
  Sweetnes Potency: 200
  Sweetness Potency (sugar=1): Approximately 200

## CC[C@H](NC(=O)[C@@H](CC)NC(=O)[C@@H](N)CC(=O)O)c1ccc(O)cc1 [Example 1, α-L-aspartyl-D-α-aminobutyric acid (S)-α-ethyl-p-hydroxybenzylamide]
[1]
  Sweetnes Potency: 2000
  Sweetness Potency (sugar=1): 2000

## CC[C@@H](NC(=O)[C@@H](N)CC(=O)O)C(=O)N[C@@H](COC)c1ccc(O)cc1 [Example 2, α-L-aspartyl-D-α-aminobutyric acid (R)-α-methoxymethyl-p-hydroxybenzylamide]
[1]
  Sweetnes Potency: 1500
  Sweetness Potency (sugar=1): 1500

## CC[C@H](NC(=O)[C@H](NC(=O)[C@@H](N)CC(=O)O)C(C)C)c1ccc(O)cc1 [Example 3, α-L-aspartyl-D-valine (S)-α-ethyl-p-hydroxybenzylamide]
[1]
  Sweetnes Potency: 1500
  Sweetness Potency (sugar=1): 1500

## COC[C@H](NC(=O)[C@H](NC(=O)[C@@H](N)CC(=O)O)C(C)C)c1ccc(O)cc1 [Example 4, α-L-aspartyl-D-valine (R)-α-methoxymethyl-p-hydroxybenzylamide]
[1]
  Sweetnes Potency: 1250
  Sweetness Potency (sugar=1): 1250

## CC(C)[C@@H](NC(=O)[C@@H](N)CC(=O)O)C(=O)N[C@@H](C)c1ccc(O)cc1 [Example 5, α-L-aspartyl-D-valine (S)-α-methyl-p-hydroxybenzylamide]
[1]
  Sweetnes Potency: 1000
  Sweetness Potency (sugar=1): 1000

## CC[C@H](NC(=O)[C@H](NC(=O)[C@@H](N)CC(=O)O)C(C)C)c1ccc(Cl)cc1 [Example 6, α-L-aspartyl-D-valine (S)-α-ethyl-p-chlorobenzylamide]
[1]
  Sweetnes Potency: 1250
  Sweetness Potency (sugar=1): 1250

## CC[C@H](NC(=O)[C@H](NC(=O)[C@@H](N)CC(=O)O)C(C)C)c1ccncc1 [Example 7, α-L-aspartyl-D-valine (S)-α-4-pyridylpropylamide]
[1]
  Sweetnes Potency: 300
  Sweetness Potency (sugar=1): Approximately 300

## COC[C@H](NC(=O)[C@H](NC(=O)[C@@H](N)CC(=O)O)C(C)C)c1ccc(OC)cc1 [Example 8, α-L-aspartyl-D-valine (R)-α-methoxymethyl-p-methoxybenzylamide]
[1]
  Sweetnes Potency: 250
  Sweetness Potency (sugar=1): Approximately 250

## COC(=O)[C@H](Cc1ccccc1)NC(=O)[C@@H](N)CC(=O)O [aspartame] (H-Asp-Phe-OMe)
[2]
  half-life: approximately 1 days
